Like-named read-outs stand apart in the source and are kept apart here.
Experiments:
[1] = molecular target: PDK1 (Homo sapiens (Human), UniProt O15530); experiment: PDK1 kinase assay (coupled PDK1/AKT/FAM-crosstide assay, IMAP fluorescence polarization); assay type: biochemical; settings: inhibition of PDK1 in vitro
Summary of the method: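 GST-tagged human PDK1 (aa 51-359, 0.75 nM) from insect cells activated unphosphorylated GST-AKT2 (aa 140-467–PIFtide fusion, 10 nM), which phosphorylated 100 nM FAM-crosstide; 40 μM ATP, pH 7.2 Tris/MgCl2, 30 min at 25° C. IMAP fluorescence polarization read-out; ΔmP versus compound concentration fitted with a 4-parameter curve.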

[2] = tested on: phospho-akt (Thr308) in PC-3 cells; experiment: Inhibition of phospho-akt (Thr308) in PC-3 cells, MSD phospho-akt 308 ELISA kit; assay type: cell-based; settings: inhibition of P308 Akt in PC-3 cells using MSD, 2 hours, no serum, read-out: EC50
Summary of the method: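 Electrochemiluminescent MSD ELISA of Thr308-phosphorylated Akt after a 2 h serum-free compound exposure of PC-3 cells (15,000/well, plated overnight). Controls: DMSO (high), 5 μM wortmannin (low). Lysate binding overnight at 4 °C; detection antibody 1 h at room temperature.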

Sequence of PDK1 (O15530 51-359): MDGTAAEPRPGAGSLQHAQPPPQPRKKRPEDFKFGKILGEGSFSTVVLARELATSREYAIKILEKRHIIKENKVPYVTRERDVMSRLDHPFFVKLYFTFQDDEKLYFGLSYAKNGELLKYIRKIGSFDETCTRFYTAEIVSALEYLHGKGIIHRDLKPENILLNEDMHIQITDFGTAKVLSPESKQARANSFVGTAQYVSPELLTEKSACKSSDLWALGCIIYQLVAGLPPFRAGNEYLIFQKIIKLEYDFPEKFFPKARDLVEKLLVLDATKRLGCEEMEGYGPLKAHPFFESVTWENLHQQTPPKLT

| SMILES | IC50 [1] | EC50 ([2]; Homo sapiens) | EC50 [2] | EC50 ([2]; Homo sapiens, PC-3, 2 h) |
| --- | --- | --- | --- | --- |
| C[C@H](NC(=O)c1cc(C#N)cnc1NCc1ccc(-c2ncnc(N)c2F)cc1)c1ccc(F)cc1 [Example 101, (S)-2-(4-(6-amino-5-fluoropyrimidin-4-yl)-benzylamino)-5-cyano-N-(1-(4-fluorophenyl)ethyl)nicotinamide] | > 5000 nM | > 10000 nM | – | – |
| C[C@H](NC(=O)c1cc(C#N)cnc1NCc1ccc(-c2ccnc(C#N)c2)cc1)c1ccc(F)cc1 [Example 108, (S)-5-cyano-2-(4-(2-cyanopyridin-4-yl)benzylamino)-N-(1-(4-fluorophenyl)ethyl)nicotinamide] | > 5000 nM | > 10000 nM | – | – |
| CNc1ncc(-c2ccc(CNc3ncc(C#N)cc3C(=O)N[C@@H](C)c3ccc(F)cc3)cc2)cc1F [Example 109] | > 5000 nM | > 10000 nM | – | – |
| C[C@H](NC(=O)c1cc(C#N)cnc1NCc1ccc(-c2ccc(C#N)nc2)cc1)c1ccc(F)cc1 [Example 111, (S)-5-cyano-2-(4-(6-cyanopyridin-3-yl)benzylamino)-N-(1-(4-fluorophenyl)ethyl)nicotinamide] | > 5000 nM | > 10000 nM | – | – |
| COC(=O)c1ccc(-c2ccc(CNc3ncc(C#N)cc3C(=O)N[C@@H](C)c3ccc(F)cc3)cc2)cn1 [Example 112, (S)-methyl 5-(4-((5-cyano-3-(1-(4-fluorophenyl)ethyl-carbamoyl)pyridin-2-ylamino)methyl)phenyl)picolinate] | > 5000 nM | > 10000 nM | – | – |
| C[C@H](NC(=O)c1cc(C#N)cnc1NCc1ccc(-c2ccc(C(N)=O)nc2)cc1)c1ccc(F)cc1 [Example 114, (S)-5-(4-((5-cyano-3-(1-(4-fluorophenyl)ethylcarbamoyl)pyridin-2-ylamino)methyl)phenyl)picolinamide] | 100 to 1000 nM | – | – | > 10000 nM |
| C[C@H](NC(=O)c1cc(C#N)cnc1NCc1ccc(-c2ccnc(N)n2)cc1)c1ccc(F)cc1 [Example 117, (S)-2-(4-(2-amino-pyrimidin-4-yl)benzylamino)-5-cyano-N-(1-(4-fluorophenyl)ethyl) nicotinamide] | > 5000 nM | 1000 to 10000 nM | – | – |
| CCN(CC)CCNC(=O)c1cc(-c2ccc(CNc3ncc(C#N)cc3C(=O)N[C@@H](C)c3ccc(F)cc3)cc2)cnc1N [Example 118] | < 100 nM | 1000 to 10000 nM | – | – |
| C[C@H](NC(=O)c1cc(C#N)cnc1NCc1ccc(-c2cnc(N)nc2)cc1)c1ccc(F)cc1 [Example 119, (S)-2-(4-(2-amino-pyrimidin-5-yl)benzylamino)-5-cyano-N-(1-(4-fluorophenyl)ethyl) nicotinamide] | < 100 nM | > 10000 nM | – | – |
| C[C@H](NC(=O)c1cc(C#N)cnc1NCc1ccc(-c2cnc(N)cn2)cc1)c1ccc(F)cc1 [Example 120, (S)-2-(4-(5-amino-pyrazin-2-yl)benzylamino)-5-cyano-N-(1-(4-fluorophenyl)ethyl) nicotinamide] | < 100 nM | < 1000 nM | – | – |
| Cc1cc(N)ncc1-c1ccc(CNc2ncc(C#N)cc2C(=O)N[C@@H](C)c2ccc(F)cc2)cc1 [Example 121, (S)-2-(4-(6-amino-4-methylpyridin-3-yl)benzylamino)-5-cyano-N-(1-(4-fluorophenyl)ethyl) nicotinamide] | 100 to 1000 nM | > 10000 nM | – | – |
| C[C@H](NC(=O)c1cc(C#N)cnc1NCc1ccc(-c2cnc3[nH]nc(N)c3c2)cc1)c1ccc(F)cc1 [Example 122, (S)-2-(4-(3-amino-1H-pyrazolo[3,4-b]pyridin-5-yl)benzylamino)-5-cyano-N-(1-(4-fluorophenyl)ethyl) nicotinamide] | < 100 nM | < 1000 nM | – | – |
| O=C(NCc1ccc(F)c(F)c1)c1cc(C(F)(F)F)cnc1NCc1ccc(-c2cnc3[nH]c(=O)[nH]c3c2)cc1 [Example 123, N-(3,4-difluorobenzyl)-2-(4-(2-oxo-2,3-dihydro-1H-imidazo[4,5-b]pyridin-6-yl)benzylamino)-5-(trifluoromethyl) nicotinamide] | < 100 nM | < 1000 nM | – | – |
| Nc1cnc(-c2ccc(CNc3ncc(C(F)(F)F)cc3C(=O)NCc3ccc(F)c(F)c3)cc2)cn1 [Example 124, 2-(4-(5-aminopyrazin-2-yl)benzylamino)-N-(3,4-difluorobenzyl)-5-(trifluoromethyl) nicotinamide] | < 100 nM | < 1000 nM | – | – |
| C[C@H](NC(=O)c1cc(C#N)cnc1NCc1ccc(-c2cnc(Nc3ccn(C)n3)nc2)cc1)c1ccc(F)cc1 [Example 125, (S)-5-cyano-N-(1-(4-fluorophenyl)ethyl)-2-(4-(2-(1-methyl-1H-pyrazol-3-ylamino)pyrimidin-5-yl)benzylamino) nicotinamide] | < 100 nM | 1000 to 10000 nM | – | – |
| C[C@H](NC(=O)c1cc(C#N)cnc1NCc1ccc(-c2cnc3[nH]c(=O)[nH]c3c2)cc1F)c1ccc(F)cc1 [Example 126, (S)-5-cyano-2-(2-fluoro-4-(2-oxo-2,3-dihydro-1H-imidazo[4,5-b]pyridin-6-yl)benzyl-amino)-N-(1-(4-fluorophenyl)ethyl) nicotinamide] | < 100 nM | < 1000 nM | – | – |
| C[C@H](NC(=O)c1cc(C#N)cnc1NCc1ccc(-c2ccc(N)nc2)cc1F)c1ccc(F)cc1 [Example 128] | < 100 nM | 1000 to 10000 nM | – | – |
| C[C@H](NC(=O)c1cc(C#N)cnc1NCc1ccc(-c2ccc(N)nc2)c(F)c1)c1ccc(F)cc1 [Example 129, (S)-2-(4-(6-aminopyridin-3-yl)-3-fluorobenzylamino)-5-cyano-N-(1-(4-fluorophenyl)ethyl) nicotinamide] | 100 to 1000 nM | 1000 to 10000 nM | – | – |
| C[C@H](NC(=O)c1cc(C#N)cnc1NCc1ccc(-c2cnc(N)cn2)cc1F)c1ccc(F)cc1 [Example 130, (S)-2-(4-(5-aminopyrazin-2-yl)-2-fluorobenzylamino)-5-cyano-N-(1-(4-fluorophenyl)ethyl) nicotinamide] | < 100 nM | 1000 to 10000 nM | – | – |
| C[C@H](NC(=O)c1cc(C#N)cnc1NCc1ccc(-c2cnc(N)cn2)c(F)c1)c1ccc(F)cc1 [Example 131, (S)-2-(4-(5-aminopyrazin-2-yl)-3-fluorobenzylamino)-5-cyano-N-(1-(4-fluorophenyl)ethyl) nicotinamide] | < 100 nM | 1000 to 10000 nM | – | – |
| Nc1n[nH]c2ncc(-c3ccc(CNc4ncc(C(F)(F)F)cc4C(=O)NCc4ccc(F)c(F)c4)cc3)cc12 [Example 132, 2-(4-(3-amino-1H-pyrazolo [3,4-b]pyridin-5-yl)benzylamino)-N-(3,4-difluorobenzyl)-5-(trifluoromethyl) nicotinamide] | < 100 nM | < 1000 nM | – | – |

More lines, now with the values ahead:

| IC50 [1] | EC50 ([2]; Homo sapiens) | EC50 [2] | EC50 ([2]; Homo sapiens, PC-3, 2 h) | SMILES |
| --- | --- | --- | --- | --- |
| < 100 nM | 1000 to 10000 nM | – | – | C[C@H](NC(=O)c1cc(C#N)cnc1NCc1ccc(-c2cnc(N)c(N)c2)cc1)c1ccc(F)cc1 [Example 102, (S)-5-cyano-2-(4-(5,6-diaminopyridin-3-yl)benzylamino)-N-(1-(4-fluorophenyl)ethyl) nicotinamide] |
| < 100 nM | 1000 to 10000 nM | – | – | COC(=O)c1cc(-c2ccc(CNc3ncc(C#N)cc3C(=O)N[C@@H](C)c3ccc(F)cc3)cc2)cnc1N [Example 103, (S)-methyl 2-amino-5-(4-((5-cyano-3-(1-(4-fluorophenyl)ethylcarbamoyl)pyridin-2-ylamino)methyl)phenyl)nicotinate] |
| < 100 nM | < 1000 nM | – | – | Cc1cc(-c2ccc(CNc3ncc(C#N)cc3C(=O)N[C@@H](C)c3ccc(F)cc3)cc2)cnc1N [Example 104, (S)-2-(4-(6-amino-5-methylpyridin-3-yl)benzylamino)-5-cyano-N-(1-(4-fluorophenyl)ethyl)nicotinamide] |
| < 100 nM | < 1000 nM | – | – | CC(=O)Nc1ccc(-c2ccc(CNc3ncc(C#N)cc3C(=O)N[C@@H](C)c3ccc(F)cc3)cc2)cn1 [Example 105, (S)-2-(4-(6-acetamido-pyridin-3-yl)benzylamino)-5-cyano-N-(1-(4-fluorophenyl)ethyl) nicotinamide] |
| < 100 nM | < 1000 nM | – | – | C[C@H](NC(=O)c1cc(C#N)cnc1NCc1ccc(-c2ccc(N)nc2)cc1)c1ccc(F)cc1 [Example 106, (S)-2-(4-(6-aminopyridin-3-yl)benzylamino)-5-cyano-N-(1-(4-fluorophenyl)ethyl) nicotinamide] |
| < 100 nM | < 1000 nM | – | – | C[C@H](NC(=O)c1cc(C#N)cnc1NCc1ccc(-c2cnc(N)c(F)c2)cc1)c1ccc(F)cc1 [Example 110, (S)-2-(4-(6-amino-5-fluoropyridin-3-yl)benzylamino)-5-cyano-N-(1-(4-fluorophenyl)ethyl)nicotinamide] |
| < 100 nM | – | > 10000 nM | – | C[C@H](NC(=O)c1cc(C#N)cnc1NCc1ccc(-c2nc3c(N)ncnc3[nH]2)cc1)c1ccc(F)cc1 [Example 113, (S)-2-(4-(6-amino-9H-purin-8-yl)benzylamino)-5-cyano-N-(1-(4-fluorophenyl)ethyl) nicotinamide] |
| < 100 nM | > 10000 nM | – | – | C[C@H](NC(=O)c1cc(C#N)cnc1NCc1ccc(-c2cnc(N)c(C#N)c2)cc1)c1ccc(F)cc1 [Example 115, (S)-2-(4-(6-amino-5-cyanopyridin-3-yl)benzylamino)-5-cyano-N-(1-(4-fluorophenyl)ethyl) nicotinamide] |
| < 100 nM | < 1000 nM | – | – | C[C@H](NC(=O)c1cc(C#N)cnc1NCc1ccc(-c2cnc3[nH]c(=O)[nH]c3c2)cc1)c1ccc(F)cc1 [Example 116, (S)-5-cyano-N-(1-(4-fluorophenyl)ethyl)-2-(4-(2-oxo-2,3-dihydro-1H-imidazo[4,5-b]pyridin-6-yl)benzyl-amino)nicotinamide] |

Reference: patent publication US10030016B2 (Sunesis Pharmaceuticals, Inc., priority 2009, dated 2018)
